The values that follow come from patent publication US12145920B2, “Lanthionine c-like protein 2 ligands, cells prepared therewith, and therapies using same” (NImmune Biopharma, Inc., priority 2019, dated 2024).

For one data set, the system named is CD4+ T cells. Description: Immune effects in CD4+ splenocytes, flow cytometry (wild type). The data set is classed as cell-based, C57BL/6 mice. The note with it: 0.1 micromolar, 48 h, vs vehicle, FIG. 4B. An excerpt:
Cell culture. Spleens were excised from C57BL/6 mice and assessed in wild-type and LANCL2 deficient states. Spleens were crushed between the frosted ends of microscope slides and filtered to provide a cellular suspension. Red blood cells were lysed through hypotonic lysis. Remaining cells were washed and filtered. CD4+ T cells were enriched within the suspension using magnetic sorting based negative selection. Cells were collected and plated within 96 well plates coated with anti-CD3 and cultured in the presence of BT-63 at 0, 0.1, 1 and 10 micromolar or BT-104A, BT-104B, or BT-104C at 0.1 micromolar for 48 h. During the last 6 h of culture, cells were stimulated with phorbol 12-myristate-13-acetate (PMA) and ionomycin.
Immunological analysis. Cells were collected from 96 well plates and stained with a cocktail of antibodies for immunophenotyping by flow cytometry. Culture supernatant was collected and assayed for cytokine concentrations by cytometric bead array. Data was captured on a BD FACS Celesta and analyzed using FacsDiva.

For data set [1] the following is noted: mice, oral dose of 10 mg/kg, comparison value; cited from earlier work.
Data set [2] relates to C57BL/6 mice with CCl4-induced steatohepatitis. In words: CCl4 model of nonalcoholic steatohepatitis. It is filed as in vivo. The note with it: oral 20 mg/kg, after 2 weeks of treatment. As for the experimental part: WD-induced model. C57BL/6 mice were administered bi-weekly intraperitoneal injections of 0.5 μL/g CCl4 to induce steatohepatitis for 4 weeks. Mice were treated daily, in a therapeutic manner after 2 weeks of injections. Treatment with BT-104-B (20 mg/kg) or vehicle control occurred by oral gavage. Dosage was calculated based off mean body weights.
Analysis. Livers were excised and weighed. Sections of livers were excised and stored in buffered formalin for Sirius red staining or snap frozen for assessment of fibrosis. Severity of fibrosis was assessed by scoring of Sirius red stained liver by microscopic examination.

A further data set has as its system NZB/W F1 mice. Description: NZB/W F1 genetic mouse model of SLE (BT-104-B). It is filed as in vivo. The note with it: spleens, 12 weeks daily oral 20 mg/kg vs vehicle. As for the experimental part:
NZB/W F1 model. Twenty-four-week-old, female NZB/W F1 mice were randomized into vehicle or BT-104-B treated arms based on baseline urine protein levels. BT-104-B was administered daily at 20 mg/kg for 12 weeks. Mice were weighed on a weekly basis to update dosage formulation. Dosage was calculated based off mean body weights.
Immunological analysis. Spleens were excised, crushed and filtered to provide a cellular suspension. Red blood cells were lysed. Cells were labeled with mixtures of extracellular (CD45, CD3, CD4, CD8, CD25) and intracellular (IL21, IL17, FOXP3) antibodies in a sequential live staining in 96-well plates in preparation for flow cytometry. Data was captured on a BD FACS Celesta and analyzed using FACSDiva.

In data set [3] the test system is C57B1/6 mice immunized with chicken collagen. Description: Collagen induced model of arthritis. It is filed as in vivo. The note with it: spleens, 4 weeks daily oral 20 mg/kg vs vehicle. As to the method: Models. Six-week-old C57B1/6 mice were immunized with 200 μg of chicken collagen emulsified in complete Freund's adjuvant by intradermal injections at the base of the tail. Mice were treated with 20 mg/kg of BT-104-B or vehicle, daily for four weeks.
Immunological analysis. Spleens were excised from mice. Tissues were crushed and filtered to provide a cellular suspension. Red blood cells were lysed. Cells were labeled with mixtures of extracellular (CD45, CD3, CD4, CD8, CD11b, CD11c) and intracellular (IFNγ, IL17, TNF) antibodies in a sequential live staining in 96-well plates in preparation for flow cytometry. Data was captured on a BD FACS Celesta and analyzed using FACSDiva.

As for `CC(C)(C(=O)c1ccccc1)N1CCN(C(=O)c2cccc(-c3nc4ccccc4[nH]3)n2)CC1` [BT-104-A], in the data set on CD4+ T cells, the “TNFa+ CD4+ T cells” value was “significantly decreasing” and the “proportions of IFNγ+ CD4+ T cells” value is “significantly decrease”.

Turning to `O=C(c1cccc(-c2nc3ccccc3[nH]2)n1)N1CCN(C(=O)c2cccc(-c3nc4ccccc4[nH]3)n2)CC1` [BT-11, N,N-Bis(benzimidazolylpicolinoyl)piperazine], the maximum plasma concentration in data set [1] was 4.9 ng/mL.

With `O=C(CN1C(=O)CN(C(=O)c2cccc(-c3nc4ccccc4[nH]3)n2)CC1=O)c1ccccc1` [BT-104-B, 4-(6-(1H-benzo[d]imidazol-2-yl)picolinoyl)-1-(2-oxo-2-phenylethyl)piperazine-2,6-dione], in data set [2] (Sirius red), the fibrotic scoring entry is listed as “reduced”. Moreover, the liver weights entry in data set [2] is recorded as “reduced”. Also, in the data set with NZB/W F1 mice, the “proportion of CD25+ FOXP3+ CD4+ T cells” value was “significantly increasing”, the “proportion of IL21+ CD4+ T cells” value is “significantly reduced” and the “proportion of IL-17+ CD4+ T cells” value is reported as “significantly reduced”. For the same compound, in the data set with CD4+ T cells, the “TNFa+ CD4+ T cells” value is on record as “significantly decreasing” and the “proportions of IFNγ+ CD4+ T cells” value was “significantly decrease”. In addition, in data set [3], the “proportion of IFNγ+ CD4+ T cells” value is reported as “significantly reduced”, the “proportion of IL-17+ CD4+ T cells” value is reported as “significantly reduced” and the “proportion of TNF+ CD11b+ CD11c+ myeloid cells” value is “significantly reduced”.
